Source: BindingDB's records for patent US20250026750 (Chia Tai Tianqing Pharmaceutical Group, 2025)

Molecular target: Serine/threonine-protein kinase ATR (Homo sapiens, UniProt Q13535)
Assay: In Vitro Inhibitory Activity Against ATR Kinase
Protocol: A 50 ng/μL ATR stock solution was diluted with a kinase buffer (50 mM HEPES, 10 mM MgCl2, 2 mM DTT, 1 mM EGTA, 0.01% Tween 20), and 6 μL of 1.67×, 0.0835 ng/μL working solution was added to each well (final concentration: 0.05 ng/μL). Different compounds dissolved in DMSO were added to wells using a nanoliter pipettor, such that the final concentrations of the compounds were 1000 nM-0.24 nM and the concentrations in positive wells were 100 nM-0.024 nM (4-fold gradient, 7 concentrations in total). Meanwhile, a blank control well (containing no enzyme) and a negative control well (containing enzyme, with the vehicle DMSO added) were set. After the enzyme had reacted with the compound or vehicle for 30 min, a 5×, 50 μM ATP (final concentration: 10 μM) prepared with the kinase buffer and a 5×, 0.5 μM substrate (final concentration: 0.1 μM, U Light-poly GT) were 1:1 mixed, and the mixture was added to wells at 4 μL/well. After the plate was sealed with a sealing film and the plate was incubated at room temperature for 2 h, 5 μL of 4×, 40 mM EDTA (final concentration: 10 mM) was added to each well. After 5 min of incubation at room temperature, 5 μL of a 4×, 8 nM assay reagent (final concentration: 2 nM, Ep-anti-phospho-tyrosine antibody) was added to each well. The plate was incubated at room temperature for 1 h. Plate reading was performed on a PE instrument (excitation: 320 or 340 nm; emission: 665 nm), and four-parameter fitting and IC50 calculations were performed.

Serine/threonine-protein kinase ATR, sequence (Q13535 whole entry): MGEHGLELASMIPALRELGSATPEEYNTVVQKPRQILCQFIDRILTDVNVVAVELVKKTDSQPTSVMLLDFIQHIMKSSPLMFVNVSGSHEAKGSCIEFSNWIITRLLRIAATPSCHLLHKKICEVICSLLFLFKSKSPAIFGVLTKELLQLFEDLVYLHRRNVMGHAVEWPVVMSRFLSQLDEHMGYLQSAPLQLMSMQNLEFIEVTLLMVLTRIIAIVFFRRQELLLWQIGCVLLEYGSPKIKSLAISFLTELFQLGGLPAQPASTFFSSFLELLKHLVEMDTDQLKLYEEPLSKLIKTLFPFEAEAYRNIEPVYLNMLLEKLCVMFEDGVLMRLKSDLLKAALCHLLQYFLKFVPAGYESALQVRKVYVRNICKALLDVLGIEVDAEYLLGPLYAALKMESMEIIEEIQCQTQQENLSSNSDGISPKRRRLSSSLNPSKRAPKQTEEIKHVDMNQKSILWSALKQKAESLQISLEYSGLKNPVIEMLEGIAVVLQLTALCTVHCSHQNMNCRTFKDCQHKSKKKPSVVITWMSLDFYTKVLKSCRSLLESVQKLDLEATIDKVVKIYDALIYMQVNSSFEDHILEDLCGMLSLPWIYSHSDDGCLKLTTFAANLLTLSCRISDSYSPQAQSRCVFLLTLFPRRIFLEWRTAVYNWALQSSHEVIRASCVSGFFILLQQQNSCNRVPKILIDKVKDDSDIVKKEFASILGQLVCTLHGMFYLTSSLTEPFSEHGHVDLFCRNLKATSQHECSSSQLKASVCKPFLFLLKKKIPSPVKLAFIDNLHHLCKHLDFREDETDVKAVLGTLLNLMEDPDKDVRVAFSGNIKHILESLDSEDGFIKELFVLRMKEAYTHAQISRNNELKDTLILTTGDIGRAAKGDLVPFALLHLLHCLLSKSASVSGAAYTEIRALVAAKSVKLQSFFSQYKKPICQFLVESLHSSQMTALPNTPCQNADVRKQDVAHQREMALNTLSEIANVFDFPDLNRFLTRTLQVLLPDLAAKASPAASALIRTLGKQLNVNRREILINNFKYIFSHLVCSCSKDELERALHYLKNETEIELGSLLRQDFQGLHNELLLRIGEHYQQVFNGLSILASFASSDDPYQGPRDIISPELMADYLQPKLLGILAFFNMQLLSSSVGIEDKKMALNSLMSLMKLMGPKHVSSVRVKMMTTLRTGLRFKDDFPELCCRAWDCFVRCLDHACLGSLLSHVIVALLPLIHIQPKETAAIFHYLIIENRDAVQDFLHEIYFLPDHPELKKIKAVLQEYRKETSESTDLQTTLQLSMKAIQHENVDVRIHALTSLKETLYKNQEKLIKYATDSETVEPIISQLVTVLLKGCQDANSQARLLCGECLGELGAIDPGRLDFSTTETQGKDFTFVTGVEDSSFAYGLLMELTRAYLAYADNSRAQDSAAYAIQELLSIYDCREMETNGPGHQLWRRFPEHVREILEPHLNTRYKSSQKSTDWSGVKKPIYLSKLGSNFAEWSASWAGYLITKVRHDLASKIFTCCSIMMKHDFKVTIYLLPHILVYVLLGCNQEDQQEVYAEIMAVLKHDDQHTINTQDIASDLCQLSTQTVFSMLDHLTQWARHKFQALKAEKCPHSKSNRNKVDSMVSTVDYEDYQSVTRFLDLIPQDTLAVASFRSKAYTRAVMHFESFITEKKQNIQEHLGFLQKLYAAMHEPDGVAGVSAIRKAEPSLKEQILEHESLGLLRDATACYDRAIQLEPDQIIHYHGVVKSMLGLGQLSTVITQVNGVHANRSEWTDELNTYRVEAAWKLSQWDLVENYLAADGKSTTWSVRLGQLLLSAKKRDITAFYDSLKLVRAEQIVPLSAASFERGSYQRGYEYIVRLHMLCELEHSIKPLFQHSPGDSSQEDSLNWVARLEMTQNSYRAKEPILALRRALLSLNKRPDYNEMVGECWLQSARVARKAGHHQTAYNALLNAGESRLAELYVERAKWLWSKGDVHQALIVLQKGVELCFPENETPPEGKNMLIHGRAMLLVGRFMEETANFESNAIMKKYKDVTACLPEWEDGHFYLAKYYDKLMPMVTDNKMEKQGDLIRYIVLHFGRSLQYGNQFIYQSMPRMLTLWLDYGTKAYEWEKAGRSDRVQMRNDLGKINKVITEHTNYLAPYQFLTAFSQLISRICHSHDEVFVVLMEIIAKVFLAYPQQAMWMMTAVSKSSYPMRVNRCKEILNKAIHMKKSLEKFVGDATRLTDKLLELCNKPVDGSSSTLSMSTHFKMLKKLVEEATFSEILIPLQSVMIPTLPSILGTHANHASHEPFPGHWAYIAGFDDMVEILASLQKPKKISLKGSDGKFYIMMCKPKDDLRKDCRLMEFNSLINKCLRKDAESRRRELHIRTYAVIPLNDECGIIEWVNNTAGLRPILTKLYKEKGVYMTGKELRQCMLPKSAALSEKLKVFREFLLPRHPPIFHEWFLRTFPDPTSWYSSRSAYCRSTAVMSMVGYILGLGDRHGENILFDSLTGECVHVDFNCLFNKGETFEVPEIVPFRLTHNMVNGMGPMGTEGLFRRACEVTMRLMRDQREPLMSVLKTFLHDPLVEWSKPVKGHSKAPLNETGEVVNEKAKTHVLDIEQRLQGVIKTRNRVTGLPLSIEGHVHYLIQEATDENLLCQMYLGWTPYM

| SMILES | IC50 [nM] |
| --- | --- |
| C[C@@H]1COCCN1c1cc(N=S2(=O)CCOCC2)c2cnn(-c3ccn[nH]3)c2n1 [US20250026750, Compound 6] | < 50 |
| C[C@@H]1COCCN1c1cc(N=S(C)(C)=O)c2c(C(C)(C)C)nn(-c3cc[nH]n3)c2n1 [US20250026750, Compound 25] | < 50 |
| C[C@@H]1COCCN1c1cc(N=S(C)(=O)C(C)(C)C)c2cnn(-c3ccn[nH]3)c2n1 (some centres undefined) [US20250026750, Compound 17] | < 50 |
| C[C@@H]1COCCN1c1cc(N=S(C)(C)=O)c2cnn(-c3ccn[nH]3)c2n1 [US20250026750, Compound 1] | < 50 |
| C[C@@H]1COCCN1c1cc(N=S2(=O)CCCC2)c2cnn(-c3ccn[nH]3)c2n1 [US20250026750, Compound 4] | < 50 |
| C[C@@H]1COCCN1c1cc(N=S2(=O)CCC2)c2cnn(-c3ccn[nH]3)c2n1 [US20250026750, Compound 3] | < 50 |

Second part, the compound after the results:

| IC50 [nM] | SMILES |
| --- | --- |
| < 50 | C[C@@H]1COCCN1c1cc(N=S(C)(C)=O)c2c(C(F)(F)F)nn(-c3ccn[nH]3)c2n1 [US20250026750, Compound 23] |
| < 50 | Cc1nn(-c2ccn[nH]2)c2nc(N3CCOC[C@H]3C)cc(N=S(C)(C)=O)c12 [US20250026750, Compound 20] |
| < 50 | C[C@@H]1COCCN1c1cc(N=S(C)(C)=O)c2c(CCC(F)(F)F)nn(-c3ccn[nH]3)c2n1 [US20250026750, Compound 24] |
